For 20 molecules, MIC results are on record in ChEMBL document CHEMBL6134830, “Naturally inspired chimeric quinolone derivatives to reverse bacterial drug resistance” (Eur J Med Chem, 2025).

A word on the MIC: it is the lowest concentration found to suppress growth.

Molecules are shown by their SMILES. In brackets after ≈: the same amount, converted by molar mass.

In this test the test system is Staphylococcus aureus. Description: Antimicrobial activity against Staphylococcus aureus ATCC 25923 assessed as inhibition of bacterial growth measured after 20 hrs by CLSI protocol based Muller Hinton broth assay. In kind it is functional.
As for `CCCCCCCCCNC(=O)[C@H](CCCCN)NC(=O)[C@H](CCCCN)NC(=O)[C@H](CCCCN)NC(=O)c1ccc(C(=O)N2CCN(c3cc4c(cc3F)c(=O)c(C(=O)O)cn4C3CC3)CC2)cc1`, the MIC amounted to 3.12 mg/L (≈ 3.16 µM).

For `CCCCCCCCCNC(=O)[C@H](CCCCN)NC(=O)c1ccc(C(=O)N2CCN(c3cc4c(cc3F)c(=O)c(C(=O)O)cn4C3CC3)CC2)cc1`, the MIC came to 6.25 mg/L (≈ 8.53 µM).

As for `N[C@@H](Cc1c[nH]cn1)C(=O)N1CCN(c2cc3c(cc2F)c(=O)c(C(=O)O)cn3C2CC2)CC1`, the minimal inhibitory concentration (MIC) is at least 12.5 mg/L.

As for `CCCCCNC(=O)[C@H](CCCCN)NC(=O)c1ccc(C(=O)N2CCN(c3cc4c(cc3F)c(=O)c(C(=O)O)cn4C3CC3)CC2)cc1`, the MIC is 25 mg/L (≈ 36.9 µM).

For the molecule `CCCCCCCCCCCC(=O)N[C@@H](Cc1c[nH]cn1)C(=O)N1CCN(c2cc3c(cc2F)c(=O)c(C(=O)O)cn3C2CC2)CC1`, the MIC worked out at 6.25 mg/L (≈ 9.6 µM).

With `CCCCCCCCCC(=O)N[C@@H](CCCCN)C(=O)N1CCN(c2cc3c(cc2F)c(=O)c(C(=O)O)cn3C2CC2)CC1`, the MIC worked out at 6.25 mg/L (≈ 10.2 µM).

As for `NCCCC[C@H](NC(=O)c1ccc(C(=O)N2CCN(c3cc4c(cc3F)c(=O)c(C(=O)O)cn4C3CC3)CC2)cc1)C(=O)NCc1c(F)cccc1Cl`, the MIC was determined as 25 mg/L (≈ 33.4 µM).

Turning to `CCCCCCCCCCCCNC(=O)[C@H](CCCCN)NC(=O)[C@H](CCCCN)NC(=O)[C@H](CCCCN)NC(=O)COCCOCCNC(=O)CCC(=O)N1CCN(c2cc3c(cc2F)c(=O)c(C(=O)O)cn3C2CC2)CC1`, the MIC came to 12.5 mg/L (≈ 11.1 µM).

On to `CCCCCCCCCCNC(=O)[C@H](CCCCN)NC(=O)[C@H](CCCCN)NC(=O)c1ccc(C(=O)N2CCN(c3cc4c(cc3F)c(=O)c(C(=O)O)cn4C3CC3)CC2)cc1`, for which the MIC is 6.25 mg/L (≈ 7.14 µM).

Take `CCCCCCNC(=O)[C@H](CCCCN)NC(=O)c1ccc(C(=O)N2CCN(c3cc4c(cc3F)c(=O)c(C(=O)O)cn4C3CC3)CC2)cc1`: the MIC came out at 25 mg/L (≈ 36.2 µM).

`NCCCC[C@H](NC(=O)c1ccc(C(=O)N2CCN(c3cc4c(cc3F)c(=O)c(C(=O)O)cn4C3CC3)CC2)cc1)C(=O)NCc1c(Cl)cccc1Cl`: the MIC was 12.5 mg/L (≈ 16.3 µM).

For the molecule `NCCCC[C@H](N)C(=O)N1CCN(c2cc3c(cc2F)c(=O)c(C(=O)O)cn3C2CC2)CC1`, the MIC was at least 12.5 mg/L.

For `CCCCCCCCCNC(=O)[C@H](CCCNC(=N)N)NC(=O)[C@H](CCCNC(=N)N)NC(=O)[C@H](CCCNC(=N)N)NC(=O)c1ccc(C(=O)N2CCN(c3cc4c(cc3F)c(=O)c(C(=O)O)cn4C3CC3)CC2)cc1`, the MIC was over 50 mg/L.

For `CCCCCCCCCNC(=O)[C@H](CCCNC(=N)N)NC(=O)[C@H](CCCCN)NC(=O)[C@H](CCCCN)NC(=O)c1ccc(C(=O)N2CCN(c3cc4c(cc3F)c(=O)c(C(=O)O)cn4C3CC3)CC2)cc1`, the MIC was 3.12 mg/L (≈ 3.07 µM).

Take `O=C(Cc1ccc(-c2ccccc2)cc1)N[C@@H](Cc1c[nH]cn1)C(=O)N1CCN(c2cc3c(cc2F)c(=O)c(C(=O)O)cn3C2CC2)CC1`: the MIC worked out at 6.25 mg/L (≈ 9.43 µM).

In the case of `CCCCCCCCCCNC(=O)[C@H](CCCCN)NC(=O)[C@H](CCCCN)NC(=O)[C@H](CCCCN)NC(=O)c1ccc(C(=O)N2CCN(c3cc4c(cc3F)c(=O)c(C(=O)O)cn4C3CC3)CC2)cc1`, the MIC is 3.12 mg/L (≈ 3.11 µM).

As to `NCCCC[C@H](NC(=O)c1ccc(C(=O)N2CCN(c3cc4c(cc3F)c(=O)c(C(=O)O)cn4C3CC3)CC2)cc1)C(=O)NCc1ccc(-c2ccccc2)cc1`, the MIC worked out at 50 mg/L (≈ 64.7 µM).

Turning to `CCCCCCCCCCCCNC(=O)[C@H](CCCCN)NC(=O)[C@H](CCCCN)NC(=O)[C@H](CCCCN)NC(=O)c1ccc(C(=O)N2CCN(c3cc4c(cc3F)c(=O)c(C(=O)O)cn4C3CC3)CC2)cc1`, the MIC is 6.25 mg/L (≈ 6.06 µM).

Turning to `CCCCCCCCNC(=O)[C@H](CCCCN)NC(=O)[C@H](CCCCN)NC(=O)[C@H](CCCCN)NC(=O)c1ccc(C(=O)N2CCN(c3cc4c(cc3F)c(=O)c(C(=O)O)cn4C3CC3)CC2)cc1`, the MIC was 3.12 mg/L (≈ 3.2 µM).

Take `CCCCCCCCCCCCNC(=O)[C@H](CCCCN)NC(=O)[C@H](CCCCN)NC(=O)[C@H](CCCCN)NC(=O)CCCCCCNC(=O)CCC(=O)N1CCN(c2cc3c(cc2F)c(=O)c(C(=O)O)cn3C2CC2)CC1`: the MIC is 12.5 mg/L (≈ 11.3 µM).
